Assay results taken from patent US20180362559A1, “BONE ACTIVE NITROGEN-CONTAINING BISPHOSPHONATES WITH A NEAR INFRARED FLUORESCENT LABEL” (University of Southern California, priority 2015, published 2018).

How the values were obtained:
bone slice resorption = bone slice resorption assay; format: cell-based; details: in vitro, qualitative ranking
osteoclast (OC) = osteoclast (OC) inhibitory activity in vitro using mouse bone marrow cells (osteoclast culture); format: cell-based; details: for activity in osteoclast culture assay: in vitro, qualitative ranking; for OC numbers: mouse bone marrow cells, vehicle 239+/−17
Method: To determine if these AF-BP structural modifications improved the osteoclast (OC) inhibitory activity, these modifications were tested in vitro using mouse bone marrow cells.

Compound | activity in bone slice resorption assay (bone slice resorption) | activity in osteoclast culture assay (osteoclast (OC)) | OC numbers (osteoclast (OC); 0.1 uM) | OC numbers (osteoclast (OC); 1 uM) | OC numbers (osteoclast (OC); 10 uM)
O=C(CCNC(=O)c1ccc(-c2c3ccc(=O)cc-3oc3cc(O)ccc23)c(C(=O)O)c1)NCC(O)C[n+]1cccc(CC(O)(P(=O)(O)O)P(=O)(O)O)c1 (centres unmarked) [Compound 13, 1-(3-(3-(3-carboxy-4-(6-hydroxy-1-oxo-3H-xanthen-9-yl)benzamido)propanamido)-2-hydroxypropyl)-3-(2-hydroxy-2,2-diphosphonoethyl)pyridin-1-ium] | most active | most active | – | – | –
O=C(CCNC(=O)c1ccc(C(=O)O)c(-c2c3ccc(=O)cc-3oc3cc(O)ccc23)c1)NCC(O)C[n+]1cccc(CC(O)(P(=O)(O)O)P(=O)(O)O)c1 (centres unmarked) [Compound 14, 1-(3-(3-(4-carboxy-3-(6-hydroxy-3-oxo-3H-xanthen-9-yl)benzamido)propanamido)-2-hydroxypropyl)-3-(2-hydroxy-2,2-diphosphonoethyl)pyridin-1-ium] | most active | most active | – | – | –
O=C(CCOCCOCCOCCOCCNC(=O)c1ccc(-c2c3ccc(=O)cc-3oc3cc(O)ccc23)c(C(=O)O)c1)NCC(O)C[n+]1cccc(CC(O)(P(=O)(O)O)P(=O)(O)O)c1 (centres unmarked) [Compound 21, 1-(1-(3-carboxy-4-(6-hydroxy-3-oxo-3H-xanthen-9-yl)phenyl)-20-hydroxy-1,17-dioxo-5,8,11,14-tetraoxa-2,18-diazahenicosan-21-yl)-3-(2-hydroxy-2,2-diphosphonoethyl)pyridin-1-ium] | most active | most active | – | – | –
O=C(CCOCCOCCOCCOCCNC(=O)c1ccc(C(=O)O)c(-c2c3ccc(=O)cc-3oc3cc(O)ccc23)c1)NCC(O)C[n+]1cccc(CC(O)(P(=O)(O)O)P(=O)(O)O)c1 (centres unmarked) [Compound 22] | most active | most active | – | – | –
O=P(O)(O)C(O)(Cc1cccnc1)P(=O)(O)O [RIS, (1-hydroxy-2-pyridin-3-ylethane-1,1-diyl)bis(phosphonic acid), reference compound] | – | – | 214+/−37 | 220+/−28 | 143+/−21
